Measurements published in US12209096B2, “Compounds and compositions for inducing chondrogenesis” (NOVARTIS AG, priority 2017, dated 2025).

Experiments:
[1] = system: human chondrogenic progenitor cell (CPCs); test: Collagen type II assay (chondrogenic differentiation); assay type: cell-based; settings: 432 h, hCPCs, 18 days; for Emax: read-out: (B) % Efficacy; for EC50: read-out: (B) EC50
Experimental: To initiate chondrogenesis in primary CPCs, 8000 cells were plated/well in a Costar 96 well plate in MSCGM. After 24 hours the MSCGM was removed and replaced with DMEM containing 1% FBS. The test compound was then added to each well at the indicated dose. The cultures were grown at 37° C. for 18 days. A media supplement of an additional 50 μl of DMEM containing 1% FBS was given 10 days after chondrogenic induction.
To detect the presence of Collagen type II, hCPCs were fixed with 10% formalin for 20 minutes, permeablized with PBS containing 0.1% triton X-100, 0.2 mg/ml of Collagenase 2 for 10 minutes, blocked with PBS containing 5% BSA for 1 hr at room temperature, followed by incubation with primary antibody (anti-type II collagen antibody) in PBS containing 1% BSA overnight at 4° C. Cells were washed 3 times with PBS and incubated with fluorophore-conjugated secondary antibody and Hoechst dye for 1 hour at room temperature, followed by washing with PBS for 3 times.
The total intensity of staining was imaged by fluoresecent microscopy and/or quantified by high content imagining with the ImageXpress Micro (Molecular Devices, Sunnyvale, CA). Data analyses were performed with the customized multiwavelength cell-scoring application.

[2] = system: normal human articular chondrocytes (NHACs); test: alkaline phosphatase assay in NHAC; assay type: cell-based; settings: Homo sapiens, Chondrocyte, 240 h, 10 days; for Emax: read-out: (C) % Efficacy; for IC50: read-out: (C) IC50
Experimental: To initiate differentiation in NHACs, 16,000 cells were plated/well in Costar 96 well plate in CGM media (Lonza). After 24 hours the MSCGM was removed and replaced with DMEM containing 1% FBS. The test compound was then added to each well at the indicated dose. The cultures were grown at 37° C. for 10 days.
To detect the presence of hypertrophic cells, NHACs were fixed with 10% formalin and Hoeschst dye for 20 minutes, rinsed in PBS, then stained with Fast Blue RR Salt with Naphthol AS-MX Phosphate Alkaline Solution.
(§1) The total intensity of staining was imaged by fluoresecent microscopy, using the 651 wavelength, and/or quantified by high content imagining with the ImageXpress Micro (Molecular Devices, Sunnyvale, CA). Data analyses were performed with the customized multiwavelength cell-scoring application.

C3H10T1/2 cell line = test: alkaline phosphatase assay in C3H10T1/2; assay type: cell-based; settings: Mus musculus, C3H 10T1/2, 144 h, alkaline phosphatase assay in C3H10T1/2, 6 days; for Emax: read-out: (D) % Efficacy; for IC50: read-out: (D) IC50
Experimental: To initiate differentiation in C3H10T1/2, Clone 8 (ATCC cat #CCL-226), 4,000 cells were plated/well in 384 Perkin Elmer CellCarrier Ultra plate in DMEM/High glucose (HyClone cat #SH30022.01) containing 10% FBS and 1× Antibiotic/Antimycotic (HyClone cat #SV30079.01). After 24 hours the test compound was then added to each well at the indicated dose. The cultures were grown at 37° C. for 6 days.
To detect the presence of hypertrophic cells, C3H10T1/2 were fixed with 4% paraformaldehyde and Hoeschst dye for 20 minutes, rinsed in PBS, then stained with Fast Blue RR Salt with Naphthol AS-MX Phosphate Alkaline Solution.
as §1, with “ALP” for “total intensity of”, “561” for “651”, “Micro Confocal” for “Micro”, “application looking at the number of ALP positive cells per well.” for “application.”

NHACs = test: calcium flux assay; assay type: cell-based, human; settings: Homo sapiens; for Emax: read-out: (A) % Efficacy
Summary of the method: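 FLIPR fluorescence (ex 470–495 nm, em 515–575 nm) was read before and after compound dispense at the indicated dose. Chondrocytes (NHACs), 2000 cells/well, had been dye-loaded 24 h after plating with Calcium 5 in HBSS/HEPES plus 5 mM probenecid, 1 h, room temperature.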

CYP3A4 = CYP3A4 (Homo sapiens, UniProt P08684); test: CYP3A4 inhibition; assay type: in vitro ADME; settings: read-out: CYP3A4 inh.
Chain of CYP3A4 (P08684 whole entry): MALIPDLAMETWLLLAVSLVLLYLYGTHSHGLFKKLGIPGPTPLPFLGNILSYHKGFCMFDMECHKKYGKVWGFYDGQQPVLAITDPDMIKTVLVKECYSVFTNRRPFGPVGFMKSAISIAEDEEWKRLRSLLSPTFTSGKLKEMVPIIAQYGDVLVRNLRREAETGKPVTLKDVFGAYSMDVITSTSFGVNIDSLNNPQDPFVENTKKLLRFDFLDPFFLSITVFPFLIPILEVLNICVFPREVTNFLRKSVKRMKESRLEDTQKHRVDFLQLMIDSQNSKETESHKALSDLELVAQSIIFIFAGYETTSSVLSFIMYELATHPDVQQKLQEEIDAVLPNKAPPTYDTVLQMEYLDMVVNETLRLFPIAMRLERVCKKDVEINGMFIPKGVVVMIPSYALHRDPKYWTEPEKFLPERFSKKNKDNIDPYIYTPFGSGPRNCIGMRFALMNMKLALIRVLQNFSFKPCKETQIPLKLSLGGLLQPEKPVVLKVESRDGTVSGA

[3] = intrinsic clearance in rat liver microsomes; assay type: in vitro ADME
[4] = intrinsic clearance in human liver microsomes; assay type: in vitro ADME

SMILES | Emax [1] [%] | EC50 [1] [µM] | Emax [2] [%] | IC50 [2] [µM] | Emax (C3H10T1/2 cell line) [%] | IC50 (C3H10T1/2 cell line) [µM] | EC50 (NHACs) [µM] | Emax (NHACs) [%] | IC50 (CYP3A4) [µM] | microsomal CLint [3] [µL/min/mg] | microsomal CLint [4] [µL/min/mg]
Cc1cc([C@H]2[C@H]3O[C@H](C[C@@H]3O)[C@H]2C(=O)Nc2ccc(Cl)c(Cl)c2)ccn1 (single isomer, unassigned) [Example 53a] | 44 | 13 | 83 | 31 | 0 | > 20 | > 50 | 12 | – | – | –
Cc1cc([C@H]2[C@H]3O[C@H](C[C@@H]3O)[C@@H]2C(=O)Nc2ccc(Cl)c(Cl)c2)ccn1 (single isomer, unassigned) [Example 77a] | 120 | 0.69 | 114 | 3.5 | 45 | > 20 | 26 | 182 | – | – | –
Cc1cc([C@H]2[C@H]3O[C@H]([C@@H]4C[C@@H]43)[C@H]2C(=O)Nc2ccc(Cl)c(Cl)c2)ccn1 (single isomer, unassigned) [Example 23a] | 29 | 0.78 | 100 | 30 | 28 | > 20 | 6.1 | 99 | – | – | –
O=C(Nc1ccc(Cl)c(Cl)c1)[C@H]1[C@@H](c2ccnc(F)c2)[C@H]2O[C@@H]1C[C@@H]2O (single isomer, unassigned) [Example 52a] | 80 | 0.49 | 71 | 17 | 36 | > 20 | > 50 | 96 | – | – | –
Cc1cc([C@H]2[C@H]3O[C@H](C[C@H]3N3CCOCC3)[C@@H]2C(=O)Nc2ccc(Cl)c(Cl)c2)ccn1 [Example 177, (1R,2R,3S,4R,5R)—N-(3,4-dichlorophenyl)-3-(2-methylpyridin-4-yl)-5-morpholino-7-oxabicyclo[2.2.1]heptane-2-carboxamide] | 34 | 1.5 | 33 | > 50 | 103 | 1.5 | 22 | 211 | – | – | –
Cc1cc([C@@H]2[C@@H]3O[C@@H]([C@@H](O)[C@H]3O)[C@H]2C(=O)Nc2ccc(Cl)c(Cl)c2)ccn1 (single isomer, unassigned) [Example 157] | 59 | 2.1 | 84 | 32 | 15 | > 20 | 29 | 57 | – | – | –
Cc1cc([C@H]2[C@H]3O[C@H](C[C@@H]3O)[C@@H]2C(=O)Nc2cnc(Cl)c(Cl)c2)ccn1 (single isomer, unassigned) [Example 83] | 150 | 1.5 | 106 | 12 | 34 | > 20 | > 50 | 38 | – | – | –
Nc1cc([C@H]2[C@H]3O[C@H](C[C@@H]3O)[C@@H]2C(=O)Nc2ccc(Cl)c(Cl)c2)ccn1 [drawing 199] | – | – | – | – | – | – | – | – | 20 | 11 | 7
O=C(Nc1ccc(Cl)c(Cl)c1)[C@H]1[C@@H](c2ccncc2)[C@@H]2CC[C@H]1O2 [reference compound] | – | – | – | – | – | – | – | – | 6 | 466 | 202
Cc1cc([C@H]2[C@H]3O[C@H](C[C@@H]3O)[C@H]2C(=O)Nc2cccc(C(F)(F)F)c2)ccn1 [Example 8, (1R,2S,3S,4R,5S)-5-hydroxy-3-(2-methylpyridin-4-yl)-N-[3-(trifluromethyl)phenyl]-7-oxabicyclo[2.2.1]heptane-2-carboxamide] | – | – | 62 | > 31 | 16 | > 20 | > 50 | 50 | – | – | –
Cc1cc([C@H]2[C@H]3O[C@H]([C@H](O)[C@@H]3O)[C@@H]2C(=O)Nc2ccc(Cl)c(Cl)c2)ccn1 (single isomer, unassigned) [Example 156] | 99 | 0.95 | 103 | 15 | 42 | > 20 | 18 | 28 | – | – | –
O=C(Nc1ccc(Cl)c(Cl)c1)[C@H]1[C@@H](c2ccncc2)[C@H]2O[C@@H]1C[C@@H]2O | – | – | – | – | – | – | – | – | > 25 | 7 | 7
O=C(Nc1ccc(Cl)c(Cl)c1)[C@@H]1[C@@H](c2ccnc(F)c2)[C@H]2O[C@@H]1C[C@@H]2O (single isomer, unassigned) [Example 142a] | 83 | 1.2 | 93 | 33 | 81 | 6.6 | 22 | 68 | – | – | –
Nc1cc([C@@H]2[C@@H](C(=O)Nc3ccc(Cl)c(Cl)c3)[C@H]3CC[C@@H]2O3)ccn1 [reference compound] | – | – | – | – | – | – | – | – | 5 | 243 | 38
O=C(Nc1cnc(Cl)c(Cl)c1)[C@@H]1[C@@H](c2ccnc(F)c2)[C@H]2O[C@@H]1C[C@@H]2O (single isomer, unassigned) [Example 90a] | 65 | 2.3 | 98 | > 50 | 48 | > 20 | > 50 | 101 | – | – | –
O=C(Nc1cccc(C(F)(F)F)c1)[C@H]1[C@@H](c2ccncc2)[C@H]2O[C@@H]1C[C@@H]2O (single isomer, unassigned) [Example 11a] | 91 | 2.9 | 65 | 48 | 6 | > 20 | 0.27 | 98 | – | – | –
O=C(Nc1ccc(Cl)c(Cl)c1)[C@H]1[C@@H](c2ccncc2)[C@H]2O[C@@H]1C[C@@H]2O (single isomer, unassigned) [Example 47a] | 82 | 2.1 | 88 | 33 | 23 | > 20 | > 50 | 68 | – | – | –
